Source: US20230165276A1, “NOVEL USE OF SUBSTITUTED 2H-CHROMENS AND THEIR DERIVATIVES” (DSM IP ASSETS B.V., priority 2018, published 2023)

Assays:
[1] = Oxipres antioxidant efficacy value (EV) in poultry meal; conditions: 70° C., 5 bar oxygen, 130 hours, equimolar to BHT, EV relative to BHT (EV=1)
Procedure: (§1) Oxidative stability was assessed using an Oxipres (Mikrolab Aarhus A/S, Hojbjerg, Denmark). The ML OXIPRES® is designed to monitor the oxidation of heterogeneous products. Consumption of oxygen results in a pressure drop which is measured by means of pressure transducers. The samples are heated to accelerate the process and shorten the analysis time (Mikrolab Aarhus 2012).
(§2) Sample weights were 50 g. They were loaded into the Oxipres vessels and placed inside the stainless-steel pressure vessel and sealed. The pressure vessels were purged with pure oxygen and filled to an initial oxygen pressure of 5 bar and maintained at 70° C. during measurement (D. Ying, L. Edin, L. Cheng, L. Sanguansri, M. A. Augustin, LWT-Food Science and Technology 2015, 62, 1105-1111: “Enhanced oxidative stability of extruded product containing polyunsaturated oils.”).
(§3) The oxygen pressure was recorded as function of time. After sample load and temperature rise the pressure in the device is increasing within 10 hours. Thereafter it is decreasing. Consequently, the starting pressure is considered to be the pressure after 10 hours. The analysis ends after 130 hours at 70° C. The oxygen consumption ‘02’ of the tested sample is calculated as follows: […]
(§4) A factor of protection called ‘EV’ (Efficacy Value) was developed to quantify with a relative number (relative to BHT) the antioxidant effect of the tested candidates. EV was calculated as follows:
(§5) EV, being relative to BHT (3,5-di-tert-butyl-4-hydroxy-toluene) (EV=1), makes it possible to compare the antioxidant compounds in a defined feed application.
(§6) Compounds of formulae (1) to (7) were mixed each into the matrix 1, 2 or 3 (pet food, poultry meal, fish meal) in an equimolar ratio compared to BHT. Batches of 200 g feed were produced in order to handle a minimum of 30 mg of antioxidant. First, a 1% pre-dilution of the antioxidant with the feed material was made. Then this pre-dilution was added to the final batch, mixed, sieved (1.25 mm sieve) and mixed using a turbula® mixer. Thereafter 55 g of the final batch were packed into polyethylene bags and stored at 4° C. till time of Oxipres assay. Spare sample were stored at 4° C. An efficacy value 0.7 has been considered as acceptable, an efficacy value the efficacy value of alpha-tocopherol as good, and an efficacy value the efficacy value of BHT as very good.

[2] = Oxipres antioxidant efficacy value (EV) in fish meal; conditions: 70° C., 5 bar oxygen, 130 hours, equimolar to BHT, EV relative to BHT (EV=1)
Procedure: as §1, §2, §3, §4, §5, §6

Solubility in fish oil = type: physicochemical
Procedure: (§7) Two different levels of compound of formula (1) (0.5 and 2 mg/g) were used in 5 g of natural fish oil (Product Code: FG30TG) and used in the Oxidative Stability Instrument at 80° C. with the air flow rate of 40 psi. The solubility of different amounts and types of antioxidants used in 051 was checked before and after the application. […] Compound of formula (1) was used in the Oxidative Stability instruments under the same conditions used for fish oil evaluations. Also, the synergistic effect of compound of formula (1) with ascorbyl palmitate (AP) was determined using the OSI values. The polymers generated at the end of the experiment were determined by LC.

[3] = Oil Stability Index (Oxidative Stability Instrument) in FG30TG fish oil
Procedure: Compound of formula (1) was evaluated primarily for its oxidative stability by the Oil Stability Index measurements.
as §7

[4] = Storage stability study of fish oil (PV, p-AV, CD); conditions: 2 mg/g in FG30TG
Procedure: Tables 12, 13 and 14 show the PV (peroxide value), p-AV (p-anisidine value) and CD (conjugated dienoic acid in %) of the fish oil samples stabilized with compound of formula (1). For the storage stability study compound of formula (1) was used in fish oil at only 2 mg/g level. […] MNT had the lowest PV values. There was no considerable variation in p-AV and CD (Tables 13-14) during the storage.

[5] = Oxipres antioxidant efficacy value (EV) in pet food; conditions: 70° C., 5 bar oxygen, 130 hours, equimolar to BHT, EV relative to BHT (EV=1)
Procedure: as §1, §2
as §3, with “The analysis ends after 130 hours at 70° C.” left out
A factor of protection called ‘EV’ (Efficacy Value) was developed to quantify with a relative number (relative to BHT) the antioxidant effect of the tested candidates. EV was calculated as follows: […]

[6] = Oil Stability Index in crude algal oil
Procedure: as §7
This algal oil already contained about 1.6 mg/g of MNT.

[7] = Polymers generated at the end of the fish oil stabilization experiment (LC); conditions: 2 mg/g in FG30TG oil, without AP
Procedure: as §7
Polymers generated at the end of the stabilization experiment of fish oil with compound of formula (1) and AP are shown in Table 11.
Polymers are combination of complex compounds generated at the end of the oxidation cascade of unsaturated fatty acids and, they indicate the levels of overall oxidation of the matrix. The generation of such polymers in fish oil containing compound of formula (1) could be reduced considerably when AP was added as a synergistic compound (Table 11).

In the case of Cc1cc(C(C)(C)C)c(O)c(C(C)(C)C)c1 [BHT, 3,5-di-tert-butyl-4-hydroxy-toluene, reference compound], the “EV in poultry meal” value [1] is reported as 1 and the “EV in Fish meal” value [2] is reported as 1.
In the case of CC1=CC(C)(C)Oc2ccc(O)cc21 [Compound of formula (1), 2,2,4-trimethyl-2H-chromen-6-ol], the “EV in poultry meal” value [1] is reported as 1.10, the “Solubility in fish oil, 80° C.” value (Solubility in fish oil; Amount 0.5 mg/g) is reported as “Soluble” and the “Solubility in fish oil, Room temp.” value (Solubility in fish oil; Amount 0.5 mg/g) is reported as “Soluble”. For the same compound, the “Solubility in fish oil, 80° C.” value (Solubility in fish oil; Amount 2.0 mg/g) was “Soluble”, the “Solubility in fish oil, Room temp.” value (Solubility in fish oil; Amount 2.0 mg/g) was “Soluble” and the “OSI” value ([3]; Table 7, 0.5 mg/g in FG30TG fish oil, 80° C., air flow 40 psi) was 5.95 h. The “OSI” value ([3]; Table 7, 2 mg/g in FG30TG fish oil, 80° C., air flow 40 psi) was 6.73 h, the “Protection Factor (%)” value ([3]; Table 8, 0.5 mg/g in FG30TG fish oil) was 25.26% and the “Protection Factor (%)” value ([3]; Table 8, 2 mg/g in FG30TG fish oil) was 41.58%. The “OSI” value ([3]; Table 9, 2 mg/g in FG30TG fish oil, without AP) was 5.70 h, the “Protection Factor (%)” value ([3]; Table 10, 2 mg/g in FG30TG fish oil, without AP) was 23.1% and the “CD (conjugated dienoic acid in %)” value ([4]; 4 days) was 0.8%. The “PV (peroxide value)” value ([4]; 4 days) was 2, the “p-AV (p-anisidine value)” value ([4]; 4 days) was 4.4 and the “CD (conjugated dienoic acid in %)” value ([4]; 6 days) was 0.8%. For the same compound, the “PV (peroxide value)” value ([4]; 6 days) was 2.6, the “p-AV (p-anisidine value)” value ([4]; 6 days) was 7.2 and the “CD (conjugated dienoic acid in %)” value ([4]; 8 days) was 0.9%. For the same compound, the “PV (peroxide value)” value ([4]; 8 days) was 3.8, the “p-AV (p-anisidine value)” value ([4]; 8 days) was 6.8 and the “CD (conjugated dienoic acid in %)” value ([4]; 11 days) was 0.9%. For the same compound, the “PV (peroxide value)” value ([4]; 11 days) was 6.8, the “p-AV (p-anisidine value)” value ([4]; 11 days) was 7.6 and the “CD (conjugated dienoic acid in %)” value ([4]; 13 days) was 0.8%. For the same compound, the “PV (peroxide value)” value ([4]; 13 days) was 9.8, the “p-AV (p-anisidine value)” value ([4]; 13 days) was 8.1 and the “CD (conjugated dienoic acid in %)” value ([4]; 15 days) was 0.8%. The “PV (peroxide value)” value ([4]; 17 days) was 12.1, the “p-AV (p-anisidine value)” value ([4]; 17 days) was 8.5 and the “CD (conjugated dienoic acid in %)” value ([4]; Initial) was 0.7%. For the same compound, the “PV (peroxide value)” value ([4]; Initial) was 0.9, the “p-AV (p-anisidine value)” value ([4]; Initial) was 9.9 and the “EV in pet food” value [5] was 0.97. The “EV in Fish meal” value [2] was 0.94, the “OSI” value ([6]; 0.5 mg/g added to crude algal oil already containing about 1.6 mg/g of MNT) was 16.60 h and the “OSI” value ([6]; 2 mg/g added to crude algal oil already containing about 1.6 mg/g of MNT) was 18.55 h. The “Polymers (%)” value [7] was 34.67%.
For CC1(C)C=Cc2cc(O)ccc2O1 [Compound of formula (2), 2,2-dimethyl-2H-chromen-6-ol], the “EV in poultry meal” value [1] was 1.11.
With CC1=CC(C)(C)Oc2c(C)c(C)c(O)c(C)c21 [Compound of formula (3), 2,2,4,5,7,8-hexamethyl-2H-chromen-6-ol] the “EV in Fish meal” value [2] was 0.89.
With Cc1c(C)c2c(c(C)c1O)C=CC(C)(C)O2 [Compound of formula (4), 2,2,5,7,8-pentamethyl-2H-chromen-6-ol] the “EV in Fish meal” value [2] was 1.10.
In the case of CCOc1ccc2c(c1)C(C)=CC(C)(C)O2 [Compound of formula (5), 6-ethoxy-2,2,4-trimethyl-2H-chromene], the “EV in Fish meal” value [2] is reported as 0.77.
For O=c1ccc2cc(O)ccc2o1 [Compound of formula (6), 6-hydroxycoumarin], the “EV in Fish meal” value [2] was 0.75.
In the case of Oc1ccc2c(c1)C=CCO2 [Compound of formula (7), 2H-chromen-6-ol], the “EV in Fish meal” value [2] is reported as 0.72.
In the case of Cc1c(C)c2c(c(C)c1O)CC[C@@](C)(CCC[C@H](C)CCC[C@H](C)CCCC(C)C)O2 [alpha-tocopherol, reference compound], the “EV in poultry meal” value [1] is reported as 0.74, the “EV in pet food” value [5] is reported as 0.77 and the “EV in Fish meal” value [2] is reported as 0.88.
